Where two headings read alike, the source gives them in different places.
Assays:
[1] = target: T1, Arabidopsis thaliana HPPD (AtHPPD) (Arabidopsis thaliana, UniProt P93836); assay: AtHPPD enzyme inhibition study; format: biochemical
T1 construct: made in house
T1 sequence (P93836 1-445): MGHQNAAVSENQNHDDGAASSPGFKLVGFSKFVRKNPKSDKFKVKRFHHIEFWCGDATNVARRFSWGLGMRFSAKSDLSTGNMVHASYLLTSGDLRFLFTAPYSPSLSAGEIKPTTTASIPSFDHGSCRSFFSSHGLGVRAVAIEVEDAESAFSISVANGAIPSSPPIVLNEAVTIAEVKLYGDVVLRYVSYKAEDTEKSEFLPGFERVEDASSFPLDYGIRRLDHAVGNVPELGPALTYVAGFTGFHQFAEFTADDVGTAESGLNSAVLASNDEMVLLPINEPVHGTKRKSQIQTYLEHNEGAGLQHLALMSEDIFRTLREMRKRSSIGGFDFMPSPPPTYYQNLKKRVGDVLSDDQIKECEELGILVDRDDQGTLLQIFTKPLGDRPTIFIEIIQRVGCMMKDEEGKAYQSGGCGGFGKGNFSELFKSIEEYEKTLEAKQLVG
Method: AtHPPD was prepared and puriﬁed according to the reported methods in the literature [19–2035–37].

wheat = assay: Postemergence crop safety, wheat; format: in vivo; conditions: postemergence, 150 g ai/ha, four-leaf stage, after 15 days
Method: (§1) The representative crops, rice, wheat, maize, cotton, soybean, and canola were selected to test the crop safety of compound II3, II4, and II5. The six crops were separately planted in ﬂowerpots (12 cm diameter) containing the composite nutrient soil and grown at room temperature. When the crops had reached the four-leaf stage, the safety experiments were conducted at the rate of 150 g ai/ha. After 15 days, the ﬁnal results of crop safety were evaluated with two duplicates per experiment (Table 3).

maize = assay: Postemergence crop safety, maize; format: in vivo; conditions: postemergence, 150 g ai/ha, four-leaf stage, after 15 days
Method: as §1

rice = assay: Postemergence crop safety, rice; format: in vivo; conditions: 150 g ai/ha, four-leaf stage, after 15 days
Method: as §1

cotton = assay: Postemergence crop safety, cotton; format: in vivo; conditions: 150 g ai/ha, four-leaf stage, after 15 days
Method: as §1

canola = assay: Postemergence crop safety, canola; format: in vivo; conditions: 150 g ai/ha, four-leaf stage, after 15 days
Method: as §1

soybean = assay: Postemergence crop safety, soybean; format: in vivo; conditions: 150 g ai/ha, four-leaf stage, after 15 days
Method: as §1

[2] = system: E. crus-galli, S. faberii, D. sanguinalis, A. retroflexus, E. prostrata, A. juncea; assay: Post-emergence greenhouse herbicidal activity; format: in vivo; design: Sum of inhibition rate: scale not given here; conditions: post-emergence, 150 g ai/ha; for Sum of inhibition rate: sum over six weeds (AJ, AR, EP, DS, EC, SF), 18 days after treatment

| Structure (SMILES) | Ki [1] | % injury wheat (wheat) | % injury maize (maize) | % injury rice (rice) | % injury cotton (cotton) | % injury canola (canola) | % injury soybean (soybean) | herbicidal activity (in words) [2] | Sum of inhibition rate [2] | Ki ([1]; read-out: AtHPPD inhibition Ki) |
| --- | --- | --- | --- | --- | --- | --- | --- | --- | --- | --- |
| Cn1nc(C(F)(F)F)c(C(=O)COc2nc(Cl)c(Cl)cc2Cl)c1O [II5] | 0.12 ± 0.003 µM | 50% | 30% | 50% | 90% | 100% | 70% | excellent herbicidal activities | 415 | – |
| CS(=O)(=O)c1ccc(C(=O)C2C(=O)CCCC2=O)c([N+](=O)[O-])c1 [mesotrione, reference compound] | – | 40% | 10% | 50% | 80% | 100% | 50% | – | 510 | 0.013 ± 0.001 µM |

Source: article PMC7059547, “Synthesis and herbicidal activities of aryloxyacetic acid derivatives as HPPD inhibitors” (Beilstein Journal of Organic Chemistry, 2020)
